The text below walks through data of PMC5429603, “Discovery and characterization of verinurad, a potent and specific inhibitor of URAT1 for the treatment of hyperuricemia and gout” (Scientific Reports, 2017).

Structures are written as SMILES.

One assay concerns the target T1, human URAT1-F449Y (Homo sapiens, UniProt Q96S37, F449Y).
T1 construct: expressed in transfected cells; host or cells: HEK-293T
Kind of assay: URAT1 binding assay with 3H-verinurad, h-F449Y membranes. The protocol:
The plates were then subjected to scintillation counting. All samples were assayed in triplicate.

For a further assay, the target named is T2, human URAT1 h-C32T (Homo sapiens, UniProt Q96S37, C32T).
T2 construct: expressed in transfected cells; host or cells: HEK-293T
Kind of assay: URAT1 activity assay, h-C32T. The format is cell-based. The text has this: (§1) Human URAT1 (GenBank BC053348.1, Homo sapiens SLC22A12), rat URAT1 (NCBI NM_001034943.1, Rattus norvegicus Slc22a12) and human OAT4 (NCBI NM_018484.2, Homo sapiens SLC22A11) genes were purchased from Origene Technologies, Inc. and subcloned into pCMV6/neo using NotI. Where indicated, controls transfections used pCMV6/neo. Mutants were produced by site-directed mutagenesis using the QuikChange Lightning Multi Site-Directed Mutagenesis Kit (Agilent Technologies). […] Mutagenic primer sequences are provided in ref. [15] and mutagenic primer sequences for previously unreported mutants shown in Supplementary Table 1. All constructs used in this study were untagged. Human OAT1 was purchased from Fisher Scientific (catalog # MHS1010–7508183 in pSPORT6, NCBI NM_153276.2, Homo sapiens SLC22A6).
(§2) HEK-293T cells were maintained in DMEM/high glucose/L-glutamine/HEPES supplemented with 1 mM sodium pyruvate (Life Technologies) and 10% FBS (PAA Laboratories) at 37 °C in 5% CO2. […]
(§3) URAT1 and OAT4 activity assays were performed in assay buffer consisting of 25 mM MES pH 5.5 (from a 1 M MES solution [Sigma] adjusted to pH 5.5 with sodium hydroxide), 125 mM sodium gluconate, 4.8 mM potassium gluconate, 1.2 mM monobasic potassium phosphate, 1.2 mM magnesium sulfate, 1.3 mM calcium gluconate and 5.6 mM glucose. […] Each treatment was measured in triplicate.

Assay [1] has as its target T3, human URAT1 (Homo sapiens, UniProt Q96S37).
T3 sequence (Q96S37 1-553): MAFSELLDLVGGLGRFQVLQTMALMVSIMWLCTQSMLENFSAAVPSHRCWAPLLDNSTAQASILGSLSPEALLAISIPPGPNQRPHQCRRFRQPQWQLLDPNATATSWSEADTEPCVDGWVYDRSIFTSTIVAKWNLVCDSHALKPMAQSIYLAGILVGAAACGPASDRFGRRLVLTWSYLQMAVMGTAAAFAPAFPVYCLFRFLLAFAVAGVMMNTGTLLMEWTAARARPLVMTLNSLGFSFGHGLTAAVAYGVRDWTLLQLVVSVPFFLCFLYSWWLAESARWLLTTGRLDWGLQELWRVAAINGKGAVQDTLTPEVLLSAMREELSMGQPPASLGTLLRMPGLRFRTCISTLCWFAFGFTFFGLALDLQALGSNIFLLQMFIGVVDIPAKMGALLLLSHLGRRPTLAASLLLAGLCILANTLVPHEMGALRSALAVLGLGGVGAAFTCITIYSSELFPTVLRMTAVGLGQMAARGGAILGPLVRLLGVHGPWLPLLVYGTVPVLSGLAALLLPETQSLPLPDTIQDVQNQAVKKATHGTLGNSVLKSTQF
Kind of assay: URAT1 activity assay (14C-uric acid transport), human URAT1. The format is cell-based. Also on record: host or cells: HEK-293T. The protocol:
HEK-293T cells were maintained in DMEM/high glucose/L-glutamine/HEPES supplemented with 1 mM sodium pyruvate (Life Technologies) and 10% FBS (PAA Laboratories) at 37 °C in 5% CO2. To express URAT1, OAT4 or OAT1, plasmids were reverse transfected into HEK-293T cells. DNA (10 µg) was mixed with 30 µl of DreamFect Gold (Boca Scientific) in 2 ml OptiMem (Life Technologies). After 20 minutes, 18 ml of media containing 2 × 10^7 cells in suspension was added and mixed, and 200 µl per well were plated onto white clear-bottomed poly-D-lysine coated 96-well plates (BD Biosciences). The cells were assayed the following day.
URAT1 and OAT4 activity assays were performed in assay buffer consisting of 25 mM MES pH 5.5 (from a 1 M MES solution [Sigma] adjusted to pH 5.5 with sodium hydroxide), 125 mM sodium gluconate, 4.8 mM potassium gluconate, 1.2 mM monobasic potassium phosphate, 1.2 mM magnesium sulfate, 1.3 mM calcium gluconate and 5.6 mM glucose. URAT1 inhibitors were serially diluted into assay buffer and added to the cells for 5 minutes prior to addition of substrate. URAT1-expressing cells were incubated with 100 µM ^14C-uric acid for 10 minutes and OAT4-expressing cells were incubated with 20 µM carboxyfluorescein (Life Technologies, Inc.) for 5 minutes. Cells were then washed three times in 25 mM MES pH 5.5/125 mM sodium gluconate, and solubilized in Ultima Gold (Perkin Elmer) prior to liquid scintillation counting. Each treatment was measured in triplicate.

In the next assay the target is T4, human URAT1 h-M25V (Homo sapiens, UniProt Q96S37, M25V).
T4 construct: expressed in transfected cells; host or cells: HEK-293T
Kind of assay: URAT1 activity assay, h-M25V. The note with it: TM1 point mutant, read-out: Verinurad affinity (IC50). The format is cell-based.
From the text: as §1, §2, §3

A further assay has as its target T5, rat URAT1 r-M481I (Rattus norvegicus, UniProt Q3ZAV1, M481I).
T5 construct: expressed in transfected cells; host or cells: HEK-293T
Kind of assay: URAT1 activity assay, r-M481I. The format is cell-based.
From the text: as §1, §2, §3

The target in a further assay is T6, human URAT1 h-M22V (Homo sapiens, UniProt Q96S37, M22V).
T6 construct: expressed in transfected cells; host or cells: HEK-293T
Kind of assay: URAT1 activity assay, h-M22V. The format is cell-based. The note with it: TM1 point mutant, read-out: Verinurad affinity (IC50).
From the text: as §1, §2, §3

The next assay has as its target T7, rat URAT1 r-T32C (Rattus norvegicus, UniProt Q3ZAV1, T32C).
T7 construct: expressed in transfected cells; host or cells: HEK-293T
Kind of assay: URAT1 activity assay, r-T32C. The format is cell-based.
From the text: as §1, §2, §3

A further assay has as its target T8, human URAT1 h-V26T (Homo sapiens, UniProt Q96S37, V26T).
T8 construct: expressed in transfected cells; host or cells: HEK-293T
Kind of assay: URAT1 activity assay, h-V26T. To be noted: TM1 point mutant, read-out: Verinurad affinity (IC50). The format is cell-based.
From the text: as §1, §2, §3

The target of assay [2] is T3, human URAT1. Kind of assay: URAT1 binding assay with 3H-verinurad, human URAT1 membranes.
Experimental: Membranes were prepared from cells transfected on the previous day with URAT1 expression constructs. Cells (5–10 × 10^8) were harvested in 1 ml ice-cold binding buffer (25 mM HEPES pH 7.3, 125 mM sodium gluconate) containing complete, EDTA-free protease inhibitor cocktail (Sigma). Cells were lysed with 100 strokes in a 2 ml dounce homogenizer using a tight-fitting “B” stem. Lysates were transferred to 1.5 mL Eppendorf tubes and centrifuged at 250 rcf for 5 minutes at 2 °C, and supernatants were transferred to fresh tubes and centrifuged again at 18,000 rcf for 20 minutes at 2 °C. The pellets (membrane fractions) were resuspended in 1 ml of ice-cold binding buffer containing protease inhibitors and frozen at −80 °C. Protein was measured using the Bio-Rad protein assay dye reagent concentrate.
Samples were then rapidly filtered through 25 mm glass fiber/1.2 µM PES 96-well filter plates (Corning FiltrEX 3510), and washed once with 200 µl ice-cold binding buffer. The plates were then subjected to scintillation counting. All samples were assayed in triplicate.
GraphPad Prism software was used for non-linear regression and statistical analyses. […] For kinetic measurements (K m and B max values), the “one site – specific binding” equation was used, after subtracting transport or binding measurements from control transfected cells. Statistical significance was assessed using Student’s unpaired t-tests.
The mark [3] stands for this setting: TM1 point mutant, read-out: Verinurad affinity (IC50).

T5 sequence (Q3ZAV1 whole entry M481I): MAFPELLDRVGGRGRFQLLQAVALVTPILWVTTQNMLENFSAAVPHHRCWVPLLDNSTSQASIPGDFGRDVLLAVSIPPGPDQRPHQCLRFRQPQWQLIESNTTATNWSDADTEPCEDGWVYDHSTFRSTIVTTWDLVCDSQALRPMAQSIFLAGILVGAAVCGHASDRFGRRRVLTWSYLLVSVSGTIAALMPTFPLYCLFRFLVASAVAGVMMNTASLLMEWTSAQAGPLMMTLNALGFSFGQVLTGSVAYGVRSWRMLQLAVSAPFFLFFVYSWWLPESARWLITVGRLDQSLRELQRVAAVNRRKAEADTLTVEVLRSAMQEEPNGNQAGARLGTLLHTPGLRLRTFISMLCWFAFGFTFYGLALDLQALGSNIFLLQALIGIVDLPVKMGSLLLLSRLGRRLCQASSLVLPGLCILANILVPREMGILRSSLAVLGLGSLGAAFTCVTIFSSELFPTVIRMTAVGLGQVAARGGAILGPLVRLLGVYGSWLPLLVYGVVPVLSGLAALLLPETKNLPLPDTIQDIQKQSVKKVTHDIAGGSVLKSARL
T2 sequence (Q96S37 whole entry C32T): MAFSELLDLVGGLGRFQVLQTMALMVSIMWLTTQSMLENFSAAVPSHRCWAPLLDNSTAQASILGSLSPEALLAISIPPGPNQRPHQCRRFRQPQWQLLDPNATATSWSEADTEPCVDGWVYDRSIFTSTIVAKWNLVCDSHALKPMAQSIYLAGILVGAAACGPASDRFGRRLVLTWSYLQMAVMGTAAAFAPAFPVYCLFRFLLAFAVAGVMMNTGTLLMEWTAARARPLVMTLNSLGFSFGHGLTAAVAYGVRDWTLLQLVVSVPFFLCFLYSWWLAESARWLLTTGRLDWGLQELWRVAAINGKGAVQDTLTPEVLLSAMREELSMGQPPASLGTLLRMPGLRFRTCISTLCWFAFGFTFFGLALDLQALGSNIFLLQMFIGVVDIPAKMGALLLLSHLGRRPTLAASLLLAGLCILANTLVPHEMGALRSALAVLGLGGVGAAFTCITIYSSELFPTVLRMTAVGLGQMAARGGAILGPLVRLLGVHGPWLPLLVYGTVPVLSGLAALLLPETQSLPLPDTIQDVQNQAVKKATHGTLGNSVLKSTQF
T1 sequence (Q96S37 whole entry F449Y): as the sequence (Q96S37 whole entry C32T) above, with T32C, F449Y counted along it
T7 sequence (Q3ZAV1 whole entry T32C): as the sequence (Q3ZAV1 whole entry M481I) above, with T32C, I481M counted along it
T8 sequence (Q96S37 whole entry V26T): as the sequence (Q96S37 whole entry C32T) above, with V26T, T32C counted along it
T4 sequence (Q96S37 whole entry M25V): as the sequence (Q96S37 whole entry C32T) above, with M25V, T32C counted along it
T6 sequence (Q96S37 whole entry M22V): as the sequence (Q96S37 whole entry C32T) above, with M22V, T32C counted along it

For the molecule `CC(C)(Sc1ccncc1-c1ccc(C#N)c2ccccc12)C(=O)O` [Verinurad, 2-((3-(4-cyanonaphthalen-1-yl)pyrindin-4-yl)thio)-2-methylpropanoic acid], the IC50 (in general, the concentration needed to halve the response being measured) on human URAT1-F449Y (h-F449Y membranes, read-out: IC50, inhibition of 3H-verinurad binding to h-F449Y) is 5.9 nM; at human URAT1 h-C32T (setting [3]), 95 ± 26 nM; at human URAT1 [1] (human URAT1 wild type in HEK-293T, 100 µM 14C-uric acid, pH 5.5, read-out: IC50, inhibition of transport activity), 25 ± 3.6 nM; at human URAT1 [1] (human URAT1 wild type, read-out: IC50, inhibition of transport activity of human URAT1), 25 nM; at human URAT1 h-M25V, 29 ± 10 nM; at rat URAT1 r-M481I (TM11 point mutant, read-out: Verinurad affinity (IC50)), 11000 ± 3100 nM. Moreover, the IC50 at human URAT1 h-M22V was 29 ± 13 nM; at rat URAT1 r-T32C (setting [3]), 29000 ± 3100 nM; on human URAT1 h-V26T, 14 ± 1.5 nM; on human URAT1 [2], 7.8 nM. Also, the “fold reduced potency at h-F449Y compared to wild type human URAT1, binding assay” value on human URAT1-F449Y (h-F449Y vs human URAT1) is “the same affinity”. At human URAT1 h-C32T, the “fold reduced affinity relative to human URAT1” value came out at 4 fold. For the same molecule, on human URAT1 [1] (URAT1 vs other transporters), the “fold potency for URAT1 compared to other transporters” value is reported as “greater than 100 fold”. Also, the “fold increase in affinity compared to rat URAT1” value on rat URAT1 r-M481I was determined as 4 fold. For the same molecule, at rat URAT1 r-T32C, the “fold increase in affinity relative to rat URAT1” value is 1.4 fold. Also, the affinity on human URAT1 [2] corresponds to a Ki of 6.9 nM. Moreover, the “mode of inhibition of 3H-verinurad binding” value at human URAT1 [2] (human URAT1 membranes) is given as “competitive inhibition”.
